In patent publication US10647710B2, “Thiazole derivative and applications thereof” (Medshine Discovery Inc., priority 2017, dated 2020):
Like-named read-outs stand apart in the source and are kept apart here.

How the values were obtained:
[1] = tested on: herpes simplex virus type 1 (HSV-1) GHSV-UL46 strain; experiment: HSV-1 cytopathic effect (CPE) assay; assay type: cell-based
Procedure: To evaluate the antiviral activity of compounds against the herpes simplex virus type 1 (HSV-1) GHSV-UL46 strain in the cytopathic effect (CPE) assay.
Virus: HSV-1 GHSV-UL46, ATCC # VR-1544
Cells: African green monkey kidney cell Vero E6, obtained from Wuhan Institute of Virology, Chinese Academy of Sciences.
1.4. The cells were diluted to 1.33×10^5 cells/ml using cytopathic assay medium. The diluted cell suspension was added to a 384-well plate (Corning #3701) by using Multidrop, and 30 μl of the diluted cell suspension (4000 cells) per well were added.
2.2. Compounds were added to cell-inoculated 384-well plates using an ECHO 555 liquid workstation. Eight concentrations were tested in duplicate for each assay compound. For the cell control wells, neither compound nor virus was added. For the virus control wells, no compound was added. The final concentration of DMSO in all the wells was 0.5%.
2.3. The virus was diluted with the assay medium at an inoculation amount of 1.5 TCID90/well, 30 μl. The assay medium was added to the cell control wells with Multidrop, 30 μl per well. Then the diluted virus was added to the compound test wells and the virus control wells with Multidrop, 30 μl per well.
2.4. The cell plates were placed and cultured in a 37° C., CO2 cell incubator for 5 days.
3.2. CCK8 was added to the cell plate with Multidrop, 6 μl per well.
3.4. The absorbance of each well of the cell plate was read with a microplate reader at a wavelength of 450 nm, and 630 nm was used as the reference wavelength. The raw data were obtained by substrating the absorbance at 630 nm from the absorbance at 450 nm (Raw data=OD450-OD630).
4.1. The antiviral activity (% Inhibition) of the assay compound was calculated using the following equation: […]
wherein, Sample is the absorbance of the compound test well; cell control is the average of the absorbances of the cell control wells; and virus control is the average of the absorbances of the virus control wells.
4.2. Dose-response curves were plotted using GraphPad Prism software and the half maximal effective concentration (EC50) of the assay compounds was determined.

[2] = Pharmacokinetics of compounds in mice in vivo; details: male, mouse, Balb/c mice; for bioavailability / AUC: oral administration (gavage) 1.0 mg/kg; for bioavailability: read-out: Bioavailability F; for AUC: read-out: Concentration Integral AUC
Procedure: Objective: To test the pharmacokinetics of compounds in mice in vivo.
Balb/c mice (male, 18-22 g, 6-8 weeks old, Shanghai Slack)
The pharmacokinetics profile of the compound in rodent was tested using a standard protocol after intravenous and oral administrations. The candidate compound was prepared as a corresponding solution, which was administered as a single intravenous injection (1.0 mg/kg, 5% DMSO/95% 20% hydroxypropyl-β-cyclodextrin) or gavage (1.0 mg/kg, 0.5% methyl Cellulose MC4000). The whole blood samples were collected within 24 hours, centrifuged at 3000 g for 15 minutes, and plasma samples were obtained by separating the supernatant. 4 times volume of acetonitrile solution containing an internal standard was added to precipitate proteins. After centrifugation, the supernatant was collected, to which an equal volume of water was added, and further centrifuged to collect the supernatant. The LC-MS/MS analysis method was used to quantitatively analyze the plasma concentration, and the pharmacokinetics parameters, such as peak concentration, peak time, clearance rate, half-life, area under the curve, and bioavailability were calculated.

[3] = Human alphaherpesvirus 1, Vero C1008, in Chlorocebus sabaeus, 120 h, read-out: HSV-1 cytopathic effect EC50, HSV-1 GHSV-UL46 in Vero E6 cells, 5 days culture, CCK8 readout
[4] = read-out: HSV-1 cytopathic effect EC50, HSV-1 GHSV-UL46 in Vero E6 cells, 5 days culture, CCK8 readout

Cc1nc(N(C)C(=O)C2Cc3ccc(-c4ccccn4)cc3C2)sc1S(N)(=O)=O (single isomer, unassigned) [WX037]
EC50 [1, 3]: 7 nM | bioavailability ([2]; plasma): 75% | AUC ([2]; plasma): 24.4 µM·h | clearance ([2]; plasma, single intravenous injection 1.0 mg/kg): 1.2 mL/min/kg | half-life ([2]; plasma, single intravenous injection 1.0 mg/kg, read-out: Half life T1/2 (converted)): 360 min

Cc1nc(N(C)C(=O)Cc2ccc(-c3ccccn3)cc2)sc1S(N)(=O)=O [Pritelivir, reference compound]
bioavailability ([2]; in vivo): 100% | AUC ([2]; in vivo): 129 µM·h | clearance ([2]; in vivo, single intravenous injection 1.0 mg/kg): 0.4 mL/min/kg

Cc1nc(N(C)C(=O)[C@@H]2CCc3cc(-c4ccccn4)ccc32)sc1S(N)(=O)=O [WX017]
EC50 [1, 3]: 46 nM

Cc1nc(N(C)C(=O)[C@H]2CCc3cc(-c4ccccn4)ccc32)sc1S(N)(=O)=O [WX018]
EC50 [1, 3]: 250 nM

Cc1nc(N(C)C(=O)[C@@H]2CCCc3cc(-c4ccccn4)ccc32)sc1S(N)(=O)=O [WX030]
EC50 [1, 3]: 950 nM

Cc1nc(N(C)C(=O)[C@H]2CCCc3cc(-c4ccccn4)ccc32)sc1S(N)(=O)=O [WX031]
EC50 [1, 3]: 770 nM

Cc1nc(N(C)C(=O)C2Cc3ccc(-c4ccccn4)cc3C2)sc1S(N)(=O)=O (centres unmarked) [WX036]
EC50 [1, 3]: > 1000 nM

Cc1nc(N(C)C(=O)N2Cc3ccc(-c4ccccn4)cc3C2)sc1S(N)(=O)=O [WX042]
EC50 [1, 3]: 42 nM

Cc1nc(N(C)C(=O)C2Cc3ccc(-c4ccccn4)cc3C2)sc1S(=O)(=O)NC1CC1 (centres unmarked) [WX043]
EC50 [1, 3]: 9 nM

CC(=O)OCC1(C(=O)N(C)c2nc(C)c(S(N)(=O)=O)s2)Cc2ccc(-c3ccccn3)cc2C1 (centres unmarked) [WX072]
EC50 [1, 3]: 360 nM

Cc1nc(N(C)C(=O)C2(CO)Cc3ccc(-c4ccccn4)cc3C2)sc1S(N)(=O)=O (centres unmarked) [WX073]
EC50 [1, 3]: 120 nM

Cc1nc(N(C)C(=O)C2(C)Cc3ccc(-c4ccccn4)cc3C2)sc1S(N)(=O)=O (centres unmarked) [WX074]
EC50 [1, 3]: 43 nM

Cc1nc(N(C)C(=O)N2CCc3ccc(-c4ccccn4)cc3C2)sc1S(N)(=O)=O [WX128]
EC50 [1, 3]: 140 nM

COc1cccc(-c2ccc3c(c2)CC(C(=O)N(C)c2nc(C)c(S(N)(=O)=O)s2)C3)n1 (centres unmarked) [WX129]
EC50 [1, 3]: 46 nM

Cc1nc(N(C)C(=O)C2Cc3ccc(-c4nccs4)cc3C2)sc1S(N)(=O)=O (centres unmarked) [WX130]
EC50 [1, 3]: 17 nM

Cc1nc(N(C)C(=O)C2COc3ccc(-c4ccccn4)cc3C2)sc1S(N)(=O)=O (centres unmarked) [WX131]
EC50 [1, 3]: 130 nM

Cc1nc(N(C)C(=O)C2CCc3ccc(-c4ccccn4)cc3C2)sc1S(N)(=O)=O (centres unmarked) [WX133]
EC50 [1, 3]: 140 nM

Cc1nc(N(C)C(=O)C2Cc3ccc(-c4cccc(N(C)C)n4)cc3C2)sc1S(=O)(=O)NC1CC1 (centres unmarked) [WX142]
EC50 [1, 3]: 150 nM

Cc1nc(N(C)C(=O)C2Cc3ccc(Oc4ccccn4)cc3C2)sc1S(N)(=O)=O (centres unmarked) [WX144]
EC50 [1, 3]: 410 nM

Cc1cccc(-c2ccc3c(c2)C[C@@H](C(=O)N(C)c2nc(C)c(S(N)(=O)=O)s2)C3)n1 [WX146]
EC50 [1, 3]: 12 nM

Cc1cccc(-c2ccc3c(c2)C[C@H](C(=O)N(C)c2nc(C)c(S(N)(=O)=O)s2)C3)n1 [WX147]
EC50 [1, 3]: 780 nM

Cc1nc(N(C)C(=O)[C@H]2Cc3ccc(-c4cccc(N(C)C)n4)cc3C2)sc1S(N)(=O)=O [WX148]
EC50 [1, 3]: 44 nM

Cc1nc(N(C)C(=O)[C@@H]2Cc3ccc(-c4cccc(N(C)C)n4)cc3C2)sc1S(N)(=O)=O [WX149]
EC50 [1, 3]: 550 nM

Cc1nc(N(C)C(=O)[C@H]2Cc3ccc(-c4cccc(N)n4)cc3C2)sc1S(N)(=O)=O [WX150]
EC50 [1, 3]: 12 nM

Cc1nc(N(C)C(=O)[C@@H]2Cc3ccc(-c4cccc(N)n4)cc3C2)sc1S(N)(=O)=O [WX151]
EC50 [1, 3]: 230 nM

Cc1nc(N(C)C(=O)[C@H]2Cc3ccc(-c4cccc(N)n4)cc3C2)sc1S(=O)(=O)NC1CC1 [WX152]
EC50 [1, 3]: 7 nM

Cc1nc(N(C)C(=O)[C@@H]2Cc3ccc(-c4cccc(N)n4)cc3C2)sc1S(=O)(=O)NC1CC1 [WX153]
EC50 [1, 3]: 810 nM

Cc1nc(N(C)C(=O)[C@H]2Cc3ccc(-c4ncccc4F)cc3C2)sc1S(N)(=O)=O [WX154]
EC50 [1, 3]: 310 nM

Cc1nc(N(C)C(=O)[C@@H]2Cc3ccc(-c4ncccc4F)cc3C2)sc1S(N)(=O)=O [WX155]
EC50 [1, 3]: 24 nM

Cc1nc(N(C)C(=O)C2Cc3cc(Cl)c(-c4ccccn4)cc3C2)sc1S(N)(=O)=O (centres unmarked) [WX156]
EC50 [1, 3]: 650 nM

Cc1nc(N(C)C(=O)C2Cc3cc(F)c(-c4ccccn4)cc3C2)sc1S(N)(=O)=O (centres unmarked) [WX158]
EC50 [1, 4]: > 1000 nM

Cc1nc(N(C)C(=O)C2Cc3cc(F)c(-c4ccccn4)cc3C2)sc1S(N)(=O)=O (centres unmarked) [WX159]
EC50 [1, 4]: 17 nM
